Laboratory results: PubChem BioAssay AID2060491 (Molecular Pharmacology Branch, DTP, NCI, 2025)
pIC50: −log10 of the molar value.

Tested on: 857933-349-R-J2-PDC complex spheroids, viability
Assay: Anticancer human tumor 857933-349-R-J2-PDC patient-derived colon adenocarcinoma cell line growth inhibition [GQUAD]
Conditions: for pIC50: curve of first compound; for viability, T/C: stronger effect = lower value; active = viability on the fitted dose curve at most 10% of control; inactive = the rest
Description: DNA G-quadruplex Stabilizer Agents in Combinations in Complex Spheroids
A high-throughput screen of multi-cell type tumor spheroids was designed to identify active combinations of DNA G-quadruplex stabilizer agents and targeted small molecules. Complex spheroids include a stromal component modeled by human endothelial cells (HUVEC) and fibroblasts modeled by human mesenchymal stem cells (MSCs). The concentration ranges selected for each drug and investigational agent were based upon clinically achievable concentrations if the clinical Cmax of the agent was known.
Compounds. The drugs and investigational agents: pidnarulex (CX-5461; NSC782164), APTO-253 (NSC789042), BRACO-19 (NSC847499), peposertib (NSC802822), ceralasertib (NSC780249), elimusertib (NSC800525), camonsertib (NSC841442), AZD-1390 (NSC803789), olaparib (NSC753686), talazoparib (NSC767125), ART-558 (NSC835418), sotorasib (NSC818433), MRTX-1133 (NSC836407), SN-38 (NSC673596), topotecan (NSC609699), etoposide (NSC141540), doxorubicin (NSC123127), gemcitabine (NSC613327), 5-fluorouracil (NSC19893), paclitaxel (NSC125973), vemurafenib (NSC761431), panobinostat (NSC761190), R-306465 (JNJ-16241199; NSC773264), adavosertib (NSC754352), TP-3654 (NSC805149), carboplatin (NSC241240), KSQ-4279 (NSC840948), and staurosporine (NSC755774) were obtained from the National Cancer Institute (NCI) Developmental Therapeutics Program Chemical Repository (34). The FDA-approved anticancer drug set is available from the NCI Developmental Therapeutics Program. […] The stock solutions were prepared in dimethyl sulfoxide (DMSO, Sigma-Aldrich, St. Louis, MO, cat. D2650) at 800-fold the tested concentration and stored at -70 degrees C prior to their use. All drugs and investigational agents were tested over a range starting from a high concentration at or near the clinical Cmax and decreasing in half-log increments. If the clinical Cmax for an agent had not been determined, the highest concentration tested was 10 microM.
2.3 Cell Culture. All cells were maintained in an incubator at 37 degrees C and 5% CO2 with 95% humidity. The PDC lines were cultured according to standard operating procedures established by the NCI PDMR. All PDCs were thawed and cultured in Matrigel-coated flasks prepared with a working solution of 1X Ham's F-12 nutrient mix, without supplementation (Invitrogen, cat. 11765054), 100 U/mL penicillin-streptomycin (Invitrogen, cat. 15140122), and 2.5% Matrigel (Corning Inc., cat. 354248) for the first three passages. The 857933-349-R-J2-PDC line was cultured in 6C/Colon 1B media, which includes advanced DMEM/F-12 (Thermo Fisher Scientific, cat. 12634028), 10 mM HEPES (Thermo Fisher Scientific, cat. 15630080), 1X GlutaMAX supplement (Thermo Fisher Scientific, cat. 35050061), 0.1 mg/mL primocin (InvivoGen, cat. ant-pm-2), 10% defined fetal bovine serum, heat inactivated (HyClone Laboratories Inc., cat. SH30070.03HI), 50% L-WRN conditioned media (ATCC, cat. CRL-3276), 1.25 mM N-Acetyl-L-cysteine (Sigma-Aldrich, cat. A9165), 10 mM nicotinamide (Sigma-Aldrich, cat. N0636), 1X B-27 supplement (Thermo Fisher Scientific, cat. 17504044), 1X N-2 supplement (Thermo Fisher Scientific, cat. 17502048), 10 microM Y-27632 dihydrochloride (Tocris Bioscience, cat. 1254), and 50 ng/mL human EGF recombinant protein (Thermo Fisher Scientific, cat. PHG0311). The 485176-168-R4-J1-PDC line was cultured in Panc media, which includes all 6C/Colon 1B media components plus 100 ng/mL human FGF-10 (Thermo Fisher Scientific, cat. 100-26), 500 nM SB-431542 (Selleckchem, cat. S1067), and gastrin (Tocris, cat. 3006).
[…]

[1] = second compound 0.0316 µM, first compound 0.0316 µM
[2] = second compound 0.0316 µM, first compound 0.1 µM
[3] = second compound 0.0316 µM, first compound 0.316 µM
[4] = second compound 0.0316 µM, first compound 1 µM
[5] = second compound 0.0316 µM, first compound 3.16 µM
[6] = second compound 0.0316 µM, first compound 10 µM
[7] = second compound 0.1 µM, first compound 0.0316 µM
[8] = second compound 0.1 µM, first compound 0.1 µM
[9] = second compound 0.1 µM, first compound 0.316 µM
[10] = second compound 0.1 µM, first compound 1 µM
[11] = second compound 0.1 µM, first compound 3.16 µM
[12] = second compound 0.1 µM, first compound 10 µM
[13] = second compound 0.316 µM, first compound 0.0316 µM
[14] = second compound 0.316 µM, first compound 0.1 µM
[15] = second compound 0.316 µM, first compound 0.316 µM
[16] = second compound 0.316 µM, first compound 1 µM
[17] = second compound 0.316 µM, first compound 3.16 µM
[18] = second compound 0.316 µM, first compound 10 µM
[19] = second compound 1 µM, first compound 0.0316 µM
[20] = second compound 1 µM, first compound 0.1 µM
[21] = second compound 1 µM, first compound 0.316 µM
[22] = second compound 1 µM, first compound 1 µM
[23] = second compound 1 µM, first compound 3.16 µM
[24] = second compound 1 µM, first compound 10 µM
[25] = second compound 3.16 µM, first compound 0.0316 µM
[26] = second compound 3.16 µM, first compound 0.1 µM
[27] = second compound 3.16 µM, first compound 0.316 µM
[28] = second compound 3.16 µM, first compound 1 µM
[29] = second compound 3.16 µM, first compound 3.16 µM
[30] = second compound 3.16 µM, first compound 10 µM
[31] = second compound 10 µM, first compound 0.0316 µM
[32] = second compound 10 µM, first compound 0.1 µM
[33] = second compound 10 µM, first compound 0.316 µM
[34] = second compound 10 µM, first compound 1 µM
[35] = second compound 10 µM, first compound 3.16 µM
[36] = second compound 10 µM, first compound 10 µM
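Note: spheroids exposed to compounds for one week before readout.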
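Throughout, for viability, T/C: percent viability relative to vehicle DMSO wells taken as 100%.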

CC(=O)O[C@H]1C(=O)[C@@]2(C)[C@H]([C@H](OC(=O)c3ccccc3)[C@]3(O)C[C@H](OC(=O)[C@H](O)[C@@H](NC(=O)c4ccccc4)c4ccccc4)C(C)=C1C3(C)C)[C@]1(OC(C)=O)CO[C@@H]1C[C@@H]2O + CN(C)c1ccc(Nc2c3ccc(NC(=O)CCN4CCCC4)cc3nc3cc(NC(=O)CCN4CCCC4)ccc23)cc1
inactive: viability, T/C [1] 75% | viability, T/C [2] 36% | viability, T/C [3] 22.3% | viability, T/C [4] 23.4% | viability, T/C [5] 23.6% | viability, T/C [6] 27.1% | viability, T/C [7] 75.5% | viability, T/C [8] 33.7% | viability, T/C [9] 22.2% | viability, T/C [10] 23% | viability, T/C [11] 22.6% | viability, T/C [12] 26.4% | viability, T/C [13] 70.9% | viability, T/C [14] 35.2% | viability, T/C [15] 19.6% | viability, T/C [16] 20.5% | viability, T/C [17] 24% | viability, T/C [18] 27.2% | viability, T/C [19] 71.6% | viability, T/C [20] 33% | viability, T/C [21] 22.1% | viability, T/C [22] 21.3% | viability, T/C [23] 26.2% | viability, T/C [24] 26.8% | viability, T/C [25] 67.4% | viability, T/C [26] 31.6% | viability, T/C [27] 26% | viability, T/C [28] 24.5% | viability, T/C [29] 27.2% | viability, T/C [30] 30.9% | viability, T/C [31] 54.9% | viability, T/C [32] 43.9% | viability, T/C [33] 38.6% | viability, T/C [34] 33.4% | viability, T/C [35] 34.3% | viability, T/C [36] 41.4%
7.21: pIC50 (second compound 0.316 µM)
7.18: pIC50 (second compound 0.0316 µM)
> 7.50: pIC50 (second compound 10 µM)
7.22: pIC50 (second compound 1 µM)
7.20: pIC50 (second compound 0.1 µM)
7.26: pIC50 (second compound 3.16 µM)

Cc1cccc(N(C)C(=O)C2C(O)CCN2c2nc(C)cc(C(F)(F)F)c2C#N)c1 (centres undefined) + CN(C)c1ccc(Nc2c3ccc(NC(=O)CCN4CCCC4)cc3nc3cc(NC(=O)CCN4CCCC4)ccc23)cc1
inactive: viability, T/C [1] 106% | viability, T/C [2] 106% | viability, T/C [3] 101% | viability, T/C [4] 105% | viability, T/C [5] 103% | viability, T/C [6] 99.3% | viability, T/C [7] 101% | viability, T/C [8] 107% | viability, T/C [9] 100% | viability, T/C [10] 102% | viability, T/C [11] 103% | viability, T/C [12] 99.2% | viability, T/C [13] 104% | viability, T/C [14] 103% | viability, T/C [15] 98.5% | viability, T/C [16] 102% | viability, T/C [17] 108% | viability, T/C [18] 98% | viability, T/C [19] 104% | viability, T/C [20] 90.3% | viability, T/C [21] 94.3% | viability, T/C [22] 93.5% | viability, T/C [23] 96.7% | viability, T/C [24] 88.2% | viability, T/C [25] 89.9% | viability, T/C [26] 78.1% | viability, T/C [27] 83.8% | viability, T/C [28] 78.6% | viability, T/C [29] 87% | viability, T/C [30] 74.2% | viability, T/C [31] 68.8% | viability, T/C [32] 71.7% | viability, T/C [33] 76.5% | viability, T/C [34] 74.7% | viability, T/C [35] 69.8% | viability, T/C [36] 63.5%
< 5.00: pIC50 (second compound 0.0316 µM) | pIC50 (second compound 0.1 µM) | pIC50 (second compound 0.316 µM) | pIC50 (second compound 1 µM) | pIC50 (second compound 3.16 µM) | pIC50 (second compound 10 µM)
